From PubChem BioAssay AID248 (DTP/NCI, 2004)
Toxic doses and inconclusive results are not listed. No stated cut-off is given here; in the data, active means T/C of 150% or more; inactive means T/C below 125%.

Test system: L1210 leukemia ip in BDF1 mice, survival T/C
Test: NCI In Vivo Anticancer Drug Screen. Data for tumor model L1210 Leukemia (intraperitoneal) in B6D2F1 (BDF1) mice
Conditions: endpoint: mean survival time, schedule: Q01DX001 (ip), vehicle: carboxymethylcellulose (CMC), higher = longer survival
Summary of the method: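 Mice bearing the transplanted tumor received compound or vehicle. Survival of the treated group was divided by that of the vehicle-treated control group to give the ratio.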

Measured: T/C

Cc1ccc(S(=O)(=O)c2ccc(C)cc2)cc1
inactive: dose: 50.0 mg/kg/injection 96 % of control | dose: 100.0 mg/kg/injection 111 % of control | dose: 200.0 mg/kg/injection 100 % of control | dose: 400.0 mg/kg/injection 105 % of control
